The experiment has as its target calcium ion-activated chloride channel (Xenopus laevis, UniProt B5SVV6). As to the kind of experiment: Patch clamp method: two-electrode voltage clamp recording on Xenopus laevis eggs, calcium-dependent chloride channel blocking activity. Format: cell-based. On the procedure: Meanwhile, with regard to the novel compound represented by formula 1 according to the present invention, calcium-dependent chloride channel blocking activity was assessed by a patch clamp method according to the following experimental examples. Eggs of African Xenopus laevis were collected through surgical operation, immersed in a Barth's solution [88 mM NaCl, 1 mM KCl, 2.4 mM NaHCO3, 10 mM HEPES, 0.82 mM MgSO4, 0.33 mM Ca(NO3)2, 0.91 mM CaCl2 (all of which were purchased from Sigma Co.); 10 units/mL peniciline, and streptomycin (purchased from Gibco Co.)], and cultured in an incubator at a constant temperature of 18° C. Such prepared eggs were treated using 10 μM ionomycin (Sigma) for 30 minutes. A recording solution (96 mM NaCl, 2 mM KCl, 10 mM HEPES, 3 mM NaOH, 2 mM MgCl2, 0.5 mM EGTA, Sigma) was prepared and the eggs treated with ionomycin were rinsed using the prepared recording solution. Further, the eggs, after treating with 1 μM thapsigargin (Sigma) for 2 hours, were rinsed again using the recording solution to prepare eggs for recording. Next, an intracellular solution was prepared by adding 0.5 mM EGTA and 1 μM chelerythrine (Sigma) to 1 M KCl solution, then, charged in a glass micro-electrode. One of the prepared eggs was placed on a chamber and two micro-electrodes were stuck into both sides of the egg while dripping the recording solution over the egg. According to a protocol corresponding to purposes for experiments, two-electrode voltage clamp recording was executed to measure an electrical current.

Setting [1] is: Table 2 upper part, naphthyl compounds of formula 1b (scaffold drawing 37; * = position of naphthyl attachment).
[2] abbreviates: calcium ion-activated chloride channel, Xenopus laevis eggs, two-electrode voltage clamp.

pIC50: −log10 of the molar value.

Sequence of calcium ion-activated chloride channel (B5SVV6 entry or part of it): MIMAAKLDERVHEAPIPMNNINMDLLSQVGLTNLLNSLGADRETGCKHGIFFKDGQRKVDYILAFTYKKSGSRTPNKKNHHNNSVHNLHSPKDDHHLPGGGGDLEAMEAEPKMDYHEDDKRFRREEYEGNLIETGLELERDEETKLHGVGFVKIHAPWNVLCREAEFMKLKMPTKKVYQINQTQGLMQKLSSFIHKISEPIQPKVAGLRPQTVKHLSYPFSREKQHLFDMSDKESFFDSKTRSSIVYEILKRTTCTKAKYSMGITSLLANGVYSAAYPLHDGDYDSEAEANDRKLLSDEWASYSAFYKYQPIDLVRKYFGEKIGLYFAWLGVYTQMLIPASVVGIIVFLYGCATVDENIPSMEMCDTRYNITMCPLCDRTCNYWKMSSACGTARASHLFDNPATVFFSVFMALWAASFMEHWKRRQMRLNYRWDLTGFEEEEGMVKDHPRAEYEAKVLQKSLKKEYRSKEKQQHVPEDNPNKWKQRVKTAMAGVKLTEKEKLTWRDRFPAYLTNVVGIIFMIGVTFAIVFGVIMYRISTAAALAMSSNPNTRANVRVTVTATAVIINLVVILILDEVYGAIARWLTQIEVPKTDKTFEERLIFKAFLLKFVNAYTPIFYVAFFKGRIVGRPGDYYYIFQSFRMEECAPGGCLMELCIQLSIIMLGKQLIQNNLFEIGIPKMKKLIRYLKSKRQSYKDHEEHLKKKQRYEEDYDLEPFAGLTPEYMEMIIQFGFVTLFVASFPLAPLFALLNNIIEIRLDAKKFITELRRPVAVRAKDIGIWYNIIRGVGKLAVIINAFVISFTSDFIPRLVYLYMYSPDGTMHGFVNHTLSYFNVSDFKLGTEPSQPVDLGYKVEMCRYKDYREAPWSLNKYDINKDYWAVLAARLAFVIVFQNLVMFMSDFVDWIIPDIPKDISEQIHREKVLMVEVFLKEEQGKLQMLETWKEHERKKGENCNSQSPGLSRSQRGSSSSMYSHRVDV

On to `O=C(O)c1cc([N+](=O)[O-])ccc1Nc1cccc2ccccc12` [Compound No. 40, N-naphthyl-5-nitroanthranilic acid], for which the pIC50 by setting is: under setting [1], 5.30; under setting [2], 5.30.

Regarding `O=C(O)c1cc([N+](=O)[O-])ccc1Nc1ccc(Cl)c2ccccc12` [Compound No. 42, N-((4-chloro)naphthyl)-5-nitroanthranilic acid], the negative logarithm of the IC50 (pIC50) under setting [2] is 5.10.

As to `COc1ccc2cccc(Nc3ccc([N+](=O)[O-])cc3C(=O)O)c2c1` [Compound No. 50, N-((7-methoxy)naphthyl)-5-nitroanthranilic acid], the pIC50 is 5.47 under setting [1] and 5.47 under setting [2].

As for `COc1ccc2ccccc2c1Nc1ccc([N+](=O)[O-])cc1C(=O)O` [Compound No. 45, N-((2-methoxy)naphthyl)-5-nitroanthranilic acid], the pIC50 by setting is: under setting [1], 5.04; under setting [2], 5.04.

Take `O=C(O)c1cccc([N+](=O)[O-])c1Nc1ccc(Cl)c2ccccc12` [Compound No. 29, N-((4-chloro)naphthyl)-3-nitroanthranilic acid]: the pIC50 under setting [2] was 4.78.

Regarding `O=C(O)c1ccc([N+](=O)[O-])cc1Nc1cccc2ccccc12` [Compound No. 31, N-naphthyl-4-nitroanthranilic acid], under setting [2], the pIC50 is 5.07.

With `COc1cccc2cccc(Nc3ccc([N+](=O)[O-])cc3C(=O)O)c12` [Compound No. 51, N-((8-methoxy)naphthyl)-5-nitroanthranilic acid], the pIC50 under setting [1] was 5.07 and the pIC50 under setting [2] was 5.07.

For the molecule `COc1ccc2c(Nc3ccc([N+](=O)[O-])cc3C(=O)O)cccc2c1` [Compound No. 49, N-((6-methoxy)naphthyl)-5-nitroanthranilic acid], the pIC50 was 5.94 under setting [1] and 5.94 under setting [2].

As to `O=C(O)c1ccc([N+](=O)[O-])cc1Nc1ccc(Cl)c2ccccc12` [Compound No. 33, N-((4-chloro)naphthyl)-4-nitroanthranilic acid], the pIC50 runs as follows: under setting [1], 5.32; under setting [2], 5.32.

Regarding `COc1cc(Nc2ccc([N+](=O)[O-])cc2C(=O)O)c2ccccc2c1` [Compound No. 46, N-((3-methoxy)naphthyl)-5-nitroanthranilic acid], the pIC50 under setting [1] is 5.74 and the pIC50 under setting [2] was 5.74.

With “N-naphthyl-3-nitroanthranilic acid [Compound No. 28]”, the pIC50 under setting [2] was 4.27.

Regarding `COc1cccc2c(Nc3ccc([N+](=O)[O-])cc3C(=O)O)cccc12` [Compound No. 48, N-((5-methoxy)naphthyl)-5-nitroanthranilic acid], the pIC50 is, setting by setting: under setting [1], 5.04; under setting [2], 5.04.

With `O=C(O)c1cc([N+](=O)[O-])ccc1Nc1ccc(Br)c2ccccc12` [Compound No. 43, N-((4-bromo)naphthyl)-5-nitroanthranilic acid], the pIC50 under setting [1] was 5.82 and the pIC50 under setting [2] was 5.82.

As to `O=C(O)c1cc([N+](=O)[O-])ccc1Nc1ccc(I)c2ccccc12` [Compound No. 44, N-((4-iodo)naphthyl)-5-nitroanthranilic acid], the negative-log IC50 (pIC50) under setting [2] is 5.92.

As to `O=C(O)c1cc([N+](=O)[O-])ccc1Nc1ccc(F)c2ccccc12` [Compound No. 41, N-((4-fluoro)naphthyl)-5-nitroanthranilic acid], under setting [2], the negative logarithm of the IC50 (pIC50) was 5.52.

Take `COc1ccc(Nc2cc([N+](=O)[O-])ccc2C(=O)O)c2ccccc12` [Compound No. 36, N-((4-methoxy)naphthyl)-4-nitroanthranilic acid]: the pIC50 under setting [1] is 4.82 and the negative-log IC50 (pIC50) under setting [2] was 4.82.

As to `O=C(O)c1c(Nc2ccc(Br)c3ccccc23)cccc1[N+](=O)[O-]` [Compound No. 70, N-((4-bromo)naphthyl)-6-nitroanthranilic acid], the pIC50 under setting [2] was 5.07.

As to `O=C(O)c1ccc(C(F)(F)F)cc1Nc1ccc(Cl)c2ccccc12` [Compound No. 66, N-((4-chloro)naphthyl)-4-trifluoromethylanthranilic acid], the negative-log IC50 (pIC50) under setting [2] is 5.24.

As to `COc1ccc(Nc2ccc([N+](=O)[O-])cc2C(=O)O)c2ccccc12` [Compound No. 47, N-((4-methoxy)naphthyl)-5-nitroanthranilic acid], the pIC50 is 5.64 under setting [1] and 5.64 under setting [2].

As to “N-naphthyl-4-trifluoromethylanthranilic acid [Compound No. 65]”, under setting [2], the pIC50 is 4.27.

Turning to `O=C(O)c1cc([N+](=O)[O-])ccc1Nc1ccccc1` [drawing 38 R1=5-NO2 R3=H, reference compound], the pIC50 (Table 2 lower part, comparison phenyl anthranilic acid compounds of Korean Patent Registration No. 892591 (scaffold drawing 38)) is 4.37.

Take `O=C(O)c1ccc([N+](=O)[O-])cc1Nc1ccc([N+](=O)[O-])c2ccccc12` [Compound No. 35, N-((4-nitro)naphthyl)-4-nitroanthranilic acid]: under setting [2], the negative logarithm of the IC50 (pIC50) is 4.67.

As for `O=C(O)c1ccc([N+](=O)[O-])cc1Nc1ccc(Br)c2ccccc12` [Compound No. 34, N-((4-bromo)naphthyl)-4-nitroanthranilic acid], the pIC50 under setting [2] is 5.00.

Source of the values: patent US9834537B2, “Compounds as chloride channel blocking agent” (Korea Institute of Science and Technology, priority 2013, dated 2017).
